Experiments:
[1] = system: P. falciparum NF54 gametocytes; test: gametocyte viability assay (AlamarBlue); assay type: cell-based, Plasmodium falciparum; conditions: for IC50: P. falciparum NF54 stage III-V gametocytes, 72 h, AlamarBlue, mean ± SD, n = 3; for Asexual/Gametocyte: ratio of asexual IC50 to gametocyte IC50
Procedure: (§1) Asexual parasites of P. falciparum strain NF54 were cultured as described previously. Briefly, parasites were maintained in RPMI 1640 medium containing 10% positive human serum + erythrocytes (5% haematocrit), 2.5% sodium bicarbonate and 11 µg/mL gentamicin at 37 °C with 5% CO2, 5% O2 and 90% N2. Gametocyte cultures were set up at 0.1% parasitaemia and on days 9–10 treated with 50 mM N-acetylglucosamine (NAG) to block further asexual growth. Stage III–V gametocytes were isolated by Percoll density gradient centrifugation on day 12 and returned to culture for 24 h before being used in the assay. At the time of the assay over 73% of the gametocytes were stage IV or V (Additional file 1). HepG2 cells (ATCC, cat. no. 77400) were cultured in 175-cm^2 tissue culture flasks with 30 ml growth medium at 37 °C in a 5% CO2 and 5% O2 humidified atmosphere. Growth medium was made with Dulbecco’s Modified Eagle Medium with 10% fetal bovine serum (FBS). Growth medium was replaced every other day and cells were passaged at 75% confluence.
Compounds from the Sytravon library (a retired Pharma screening collection that contains a diversity of novel small molecules, with an emphasis on medicinal chemistry-tractable scaffolds) were obtained as powder samples and dissolved in DMSO as […] stock solutions. Compound screening experiments were performed as previously described. In the primary screen, two concentrations for each compound were tested. No technical and biological replicates were involved. In the follow-up confirmation studies, three biological replicates were tested for each compound in both parasite assays. The positive control was 46 µM of Torin 2 and negative control was DMSO. Briefly, 2.5 μL/well incomplete medium was dispensed into each well of 1536-well plates using the Multidrop Combi followed by 23 nL compound transferring using the NX-TR Pintool (WAKO Scientific Solutions, San Diego, CA). Then, 2.5 μL/well of gametocytes was dispensed with a seeding density of 20,000 cells/well using the Multidrop Combi. The assay plates were incubated for 72 h at 37 °C with 5% CO2. After addition of 5 μL/well of 2X AlamarBlue dye (Life Technologies, cat. no. DAL1100), the plates were incubated for 24 h at 37 °C with 5% CO2 and then were read in a fluorescence detection mode (Ex = 525 nm, Em = 598 nm) on a ViewLux plate reader (PerkinElmer).

[2] = system: P. falciparum NF54 asexual parasites; test: asexual parasite growth inhibition assay (SYBR Green); assay type: cell-based, Plasmodium falciparum; conditions: 72 h, mean ± SD, n = 3
Procedure: as §1
Drug activity on asexual stage parasites was tested using a SYBR Green assay as described previously. Briefly, 2.5 μL/well complete culture medium was dispensed into each well of 1536-well plates using the Multidrop Combi followed by 23 nL compound transferring using the NX-TR Pintool. Parasites were diluted to 0.5% parasitaemia in complete culture medium with 2% haematocrit and drugs diluted in DMSO (≤0.5%). The pre-diluted parasites were dispensed into a 1536-well plate (2.5 μL/well). After 72 h incubation under the standard culture conditions, 5 μL/well of lysis buffer containing SYBR Green I was added to the parasite culture and incubated for 30 min at room temperature. The fluorescence of each well was measured in a fluorescence detection mode (Ex = 490 nm, Em = 520 nm) using a ViewLux plate reader (PerkinElmer).

HepG2 cells = test: HepG2 cytotoxicity assay (AlamarBlue); assay type: cell-based, human; conditions: HepG2 cells, 72 h, AlamarBlue, up to 46 µM; for cytotoxicity at 46 µM: Homo sapiens, read-out: HepG2, IC50 (dash = less than 25% cytotoxicity)
Procedure: as §1
Drug activity on HepG2 was tested using an AlamarBlue assay as previously described. Briefly, 5 μL/well of HepG2 cells were dispensed with a seeding density of 1000 cells/well using the Multidrop Combi. 23 nL compound was transferred using the NX-TR Pintool. After 72 h incubation under the standard culture condition, 5 μL/well of 2X AlamarBlue dye was added to the cells, the plates were incubated for 2 h at 37 °C with 5% CO2 and then were read in a fluorescence detection mode (Ex = 525 nm, Em = 598 nm) on a ViewLux plate reader.

468 human kinases = test: human kinase profiling (Kinome scan, DiscoverX), whole panel; assay type: binding

Row | SMILES | IC50 ([1]; Plasmodium falciparum) [nM] | Asexual/Gametocyte [1] | IC50 ([2]; Plasmodium falciparum) [nM] | cytotoxicity at 46 µM (HepG2 cells) [%] | number of human kinases interacting (Interactions Mapped, 468 Assays Tested) (468 human kinases; 10 μM) | S-Score(35) (468 human kinases; 10 µM, 468 assays) | binding to human kinases, in words (468 human kinases; 10 µM, 468 human kinases) | ratio of IC50s, lower IC50 in gametocyte viability assay than in asexual parasite growth assay ([1]; asexual versus gametocyte) | IC50 [1] [nM] | IC50 [2] [nM] | HepG2, IC50 (dash = less than 25% cytotoxicity) (HepG2 cells)
1 | CCOCc1cc(CN2CCN(c3ccccc3OC)CC2)c(O)c2ncccc12 [NCGC00114940] | 620 ± 40 | 1.87 | 1160 ± 570 | < 25 | 0 | 0 | did not affect the activity of any | – | – | – | –
2 | COc1ccc(Nc2cc(C)nc(-n3nc(C)cc3C)n2)cc1Cl [NCGC00134126] | 1190 ± 50 | 4.02 | 4780 ± 430 | < 25 | – | – | – | ~ fourfold | – | – | –
3 | Cc1ccc2nc(-c3ccccn3)c(Nc3ccccc3C)n2c1 [NCGC00106087] | – | 2.24 | – | – | – | – | – | – | 3340 ± 510 | 7490 ± 4110 | – (Indicates compounds with less than 25% cytotoxicity at up to 46 µM)

— paper PMC5390467, “Novel lead structures with both Plasmodium falciparum gametocytocidal and asexual blood stage activity identified from high throughput compound screening” (Malaria Journal, 2017)
